# Reference: patent US8017168B2, “High-potency sweetener composition with rubisco protein, rubiscolin, rubiscolin derivatives, ace inhibitory peptides, and combinations thereof, and compositions sweetened therewith” (The Coca-Cola Company, priority 2006, dated 2011)
# Ends that are not written are not given here.
# What was measured:
# [1] = Sensory evaluation of sweetness linger by expert panel, Example Set G (citric acid/potassium citrate lemon-lime base); format: in vivo; parameters: key: 0: no sweetness linger; 1: very slight sweetness linger; 2: slight sweetness linger; 3: moderate sweetness linger; 4: moderately high sweetness linger; 5: high sweetness linger; settings: scale 0-5; for sweetness linger rating of control samples: 400 ppm REBA in citric acid/potassium citrate composition, 8 g sugar in 100 ml citrate buffer; for Sweetness Linger rating (defined anchors of the protocol): sucrose, 500 ppm REBA control sample
# Method: Sensory evaluation of the samples prepared in Example Set G was carried out under the following protocol, similar to that described hereinabove. In this test protocol, none of the samples were swallowed. All samples were expectorated and the mouth was rinsed with water after the tasting. Immediately upon sensing maximal sweetness, the sample was expectorated, the mouth was rinsed with water and the rate of sweetness decay (“Sweetness Linger”) was measured, where attention was focused on the sweetness 3-4 min after the water rinse. After sample tasting was complete, a salty oyster cracker was chewed followed by a water rinse, and at least 5 minutes followed before tasting the next sample. The sweetness linger was rated by a panel of experts in the sensory evaluation of foods and beverages using the following scale: 0=no sweetness linger, 1=very slight sweetness linger, 2=slight sweetness linger, 3=moderate sweetness linger, 4=moderately high sweetness linger, 5=high sweetness linger.
# The “Sweetness Linger” rating for sucrose observed by this protocol is defined as 0. The Sweetness Linger of a 500 ppm of REBA control sample is defined as 5. Experimental samples were tasted by the same protocol, always allowing sufficient time between samples to ensure re-equilibration of the sensory system. Re-tasting of control samples during the course of the experiment was allowed and encouraged.
# The comparison taste test was performed between two controls and addition of sweet taste improving additive on the onset and/or sweetness linger.
# The effects of formulation change on the sweetness linger of 400 ppm REBA (equivalent to 8 g sucrose) in a citric acid/potassium citrate composition equivalent to that in a diet lemon-lime beverage were evaluated. The sweetness linger rating of this solution was determined to be 5.
# 8 g of sugar was dissolved in 100 ml of citrate buffer. The sweetness linger rating of this control sample was determined to be 0.
# [2] = Sensory evaluation of sweetness linger by expert panel, Example Set H (phosphoric acid solution pH 2.4-2.5); format: in vivo; parameters: key: 0: no sweetness linger; 1: very slight sweetness linger; 2: slight sweetness linger; 3: moderate sweetness linger; 4: moderately high sweetness linger; 5: high sweetness linger; settings: scale 0-5; 500 ppm REBA or 10 g sugar in 100 ml, carbon-treated water, phosphoric acid pH 2.4-2.5
# mice = settings: oral administration, 100 mg per kg; cited from earlier work
# [3] = Rate of dissolution of rebaudioside A polymorph and amorphous forms in H2O at 25° C.; format: physicochemical
# [4] = format: physicochemical
# Method: A solution of rebaudioside A (>97% pure by HPLC) was prepared in double distilled water (12.5 gm in 50 mL, 25% concentration) by stirring the mixture at 40° C. for 5 minutes. An amorphous form of rebaudioside A was formed by immediately using the clear solution for spray drying with the Lab-Plant spray drier SD-04 instrument (Lab-Plant Ltd., West Yorkshire, U.K.). The solution was fed through the feed pump into the nozzle atomizer which atomized it into a spray of droplets with the help of a constant flow of nitrogen/air. […] This dry powder (11-12 g, H2O 6.74%) was discharged continuously from the drying chamber and was collected in a bottle.
Compound,"Rate of dissolution in H2O at 25° C. ([3]; H2O, 25° C.)",Rate of dissolution in H2O at 25° C. ([3]; grade in words),further results
OC[C@H]1O[C@@](CO)(O[C@H]2O[C@H](CO)[C@@H](O)[C@H](O)[C@H]2O)[C@@H](O)[C@@H]1O [sucrose],–,–,sweetness linger rating of control samples [1]: 0; Sweetness Linger rating (defined anchors of the protocol) [1]: 0; sweetness linger rating of control samples [2]: 0
YPLDLF [rubiscolin-6],–,–,memory consolidation (mice): enhanced memory consolidation
rebaudioside A,–,–,sweetness linger rating of control samples [1]: 5; Sweetness Linger rating (defined anchors of the protocol) [1]: 5; sweetness linger rating of control samples [2]: 5
rebaudioside A [Form 1],(<0.2%/60 %/60 minutes,Very low,–
rebaudioside A [Form 2],(<30%/5 %/5 minutes,Intermediate,–
rebaudioside A [Form 3],(>30%/5 %/5 minutes,High,–
rebaudioside A [Form 4],(>35.0%/5 %/5 minutes,High,solubility in water at room temperature [4]: > 35.0%
